Source: patent US20100331297A1, “MODULATION OF PROTEIN TRAFFICKING” (FOLDRX PHARMACEUTICALS, INC., priority 2007, published 2010)

Tests used:
ypt1^ts cells = assay: Rescue of growth of ypt1^ts mutant yeast (OD600); type: cell-based; conditions: Saccharomyces cerevisiae, read-out: Ypt1-ts MRC (Minimum Rescue Concentration), ypt1^ts cells, 35° C. and 37° C., OD600; multiple results separated by a comma
Summary of the method: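 Log-phase ypt1^ts cells (N121I/A161V) in SC 2% glucose were diluted to OD600 0.003 and treated with compound at 50 μM-0.05 μM final in 1% DMSO. Cultures were incubated at 35° C. (read at 24 and 40 h) or 37° C. (read at 40 h), with rescue measured as OD600 growth and reported as minimum rescue concentration.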

ΔF508 CFTR = ΔF508 CFTR (Homo sapiens, UniProt P13569, DEL508-508); assay: Corrector activity, YFP halide (iodide) quenching assay in FRT cells expressing ΔF508 CFTR; type: cell-based; parameters: expressed in transfected cells; host or cells: Fischer rat thyroid (FRT) cells; conditions: Corrector EC50, FRT cells ΔF508 CFTR/YFP, 24 hours with compound at 37° C., forskolin and genistein
Summary of the method: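 FRT cells co-expressing ΔF508 CFTR and halide-sensitive YFP were incubated 24 h at 37° C with compounds, then stimulated 30 min at 37° C in PBS with forskolin and genistein. Endpoint fluorescence after iodide injection was normalized to initial reading; EC50 from 4-parameter fit with bottom constrained to DMSO control.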

Chain of ΔF508 CFTR (P13569 with tags, fused parts or gaps DEL508-508): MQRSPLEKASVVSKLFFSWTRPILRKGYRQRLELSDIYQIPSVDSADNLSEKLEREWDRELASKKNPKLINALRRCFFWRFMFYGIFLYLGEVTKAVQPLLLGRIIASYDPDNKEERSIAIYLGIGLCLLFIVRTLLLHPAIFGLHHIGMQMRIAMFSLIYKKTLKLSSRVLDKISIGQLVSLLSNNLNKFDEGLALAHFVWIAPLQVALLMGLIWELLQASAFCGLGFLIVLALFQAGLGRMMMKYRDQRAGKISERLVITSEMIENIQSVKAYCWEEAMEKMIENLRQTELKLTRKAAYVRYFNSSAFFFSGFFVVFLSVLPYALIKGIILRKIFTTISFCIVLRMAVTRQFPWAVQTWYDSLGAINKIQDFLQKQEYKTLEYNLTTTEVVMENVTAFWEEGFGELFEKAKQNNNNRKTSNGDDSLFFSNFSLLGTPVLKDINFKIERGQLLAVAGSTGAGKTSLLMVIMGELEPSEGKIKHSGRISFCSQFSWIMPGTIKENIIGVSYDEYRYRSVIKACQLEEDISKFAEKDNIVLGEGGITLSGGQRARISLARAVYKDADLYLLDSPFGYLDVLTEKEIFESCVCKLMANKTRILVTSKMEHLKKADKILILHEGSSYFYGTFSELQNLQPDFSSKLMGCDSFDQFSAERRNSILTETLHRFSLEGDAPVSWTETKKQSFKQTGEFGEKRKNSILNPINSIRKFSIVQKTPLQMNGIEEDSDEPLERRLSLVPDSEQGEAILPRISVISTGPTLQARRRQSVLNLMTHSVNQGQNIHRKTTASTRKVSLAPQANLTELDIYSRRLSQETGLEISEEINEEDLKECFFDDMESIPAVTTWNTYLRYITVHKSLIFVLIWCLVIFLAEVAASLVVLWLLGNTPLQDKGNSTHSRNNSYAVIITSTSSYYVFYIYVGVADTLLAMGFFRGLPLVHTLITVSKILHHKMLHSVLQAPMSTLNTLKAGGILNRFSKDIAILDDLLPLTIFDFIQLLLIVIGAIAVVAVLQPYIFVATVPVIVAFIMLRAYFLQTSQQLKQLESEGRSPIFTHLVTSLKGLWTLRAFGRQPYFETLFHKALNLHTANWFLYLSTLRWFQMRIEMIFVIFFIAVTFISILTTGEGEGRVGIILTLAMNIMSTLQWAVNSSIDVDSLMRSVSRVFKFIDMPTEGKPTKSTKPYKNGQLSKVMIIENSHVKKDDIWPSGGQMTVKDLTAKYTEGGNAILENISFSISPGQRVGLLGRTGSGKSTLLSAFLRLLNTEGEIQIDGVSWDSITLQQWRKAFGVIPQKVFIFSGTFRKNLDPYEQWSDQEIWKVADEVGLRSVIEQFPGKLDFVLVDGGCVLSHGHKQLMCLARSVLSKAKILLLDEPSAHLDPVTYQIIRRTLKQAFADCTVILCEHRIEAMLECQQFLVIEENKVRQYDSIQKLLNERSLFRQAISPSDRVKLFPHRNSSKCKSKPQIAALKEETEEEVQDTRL

`CC(C)(C)n1nc(-c2ccc(Cl)cc2)c2c(N)ncnc21` [compound 25] was tested, and the minimal effective concentration (ypt1^ts cells) was under 10 µM and the EC50 (ΔF508 CFTR) was 2 to 5 µM.
